# From patent US10179770B2, “Quinolines derivatives as novel anticancer agents” (GENOSCIENCE PHARMA, priority 2013, dated 2019)
# What was measured:
# Assay in all cases: NCI-60 screen (SRB)
# Assay type in all cases: cell-based
# A498 = A498 (Renal)
# Procedure: (§1) The human tumor cell lines of the cancer screening panel are grown in RPMI 1640 medium containing 5% fetal bovine serum and 2 mM L-glutamine. For a typical screening experiment, cells are inoculated into 96 well microtiter plates in 100 μL at plating densities ranging from 5,000 to 40,000 cells/well depending on the doubling time of individual cell lines. After cell inoculation, the microtiter plates are incubated at 37° C., 5% CO2, 95% air and 100% relative humidity for 24 h prior to addition of experimental drugs.
# (§2) After 24 h, two plates of each cell line are fixed in situ with TCA, to represent a measurement of the cell population for each cell line at the time of drug addition (Tz). Experimental drug is solubilized in dimethyl sulfoxide at 400-fold the desired final maximum test concentration and stored frozen prior to use. At the time of drug addition, an aliquot of frozen concentrate is thawed and diluted to twice the desired final maximum test concentration with complete medium containing 50 μg/ml gentamicin. Additional four, 10-fold or ½ log serial dilutions are made to provide a total of five drug concentrations plus control. Aliquots of 100 μl of these different drug dilutions are added to the appropriate microtiter wells already containing 100 μl of medium, resulting in the required final drug concentrations.
# (§3) Following drug addition, the plates are incubated for an additional 48 h at 37° C., 5% CO2, 95% air, and 100% relative humidity. For adherent cells, the assay is terminated by the addition of cold TCA. Cells are fixed in situ by the gentle addition of 50 μl of cold 50% (w/v) TCA (final concentration, 10% TCA) and incubated for 60 minutes at 4° C. The supernatant is discarded, and the plates are washed five times with tap water and air dried. Sulforhodamine B (SRB) solution (100 μl) at 0.4% (w/v) in 1% acetic acid is added to each well, and plates are incubated for 10 minutes at room temperature. After staining, unbound dye is removed by washing five times with 1% acetic acid and the plates are air dried. Bound stain is subsequently solubilized with 10 mM trizma base, and the absorbance is read on an automated plate reader at a wavelength of 515 nm. For suspension cells, the methodology is the same except that the assay is terminated by fixing settled cells at the bottom of the wells by gently adding 50 μl of 80% TCA (final concentration, 16% TCA). Using the seven absorbance measurements [time zero, (Tz), control growth, (C), and test growth in the presence of drug at the five concentration levels (Ti)], the percentage growth is calculated at each of the drug concentrations levels.
# (§4) Percentage growth inhibition is calculated as: [(Ti−Tz)/(C−Tz)]×100 for concentrations for which Ti>/=Tz (1) [(Ti−Tz)/Tz]×100 for concentrations for which Ti<Tz (2)
# (§5) Growth inhibition of 50% (GI50) is calculated from [(Ti−Tz)/(C−Tz)]×100=50 (3)
# (§6) which is the drug concentration resulting in a 50% reduction in the net protein increase (as measured by SRB staining) in control cells during the drug incubation.
# (§7) The drug concentration resulting in total growth inhibition (TGI) is calculated from Ti=Tz (4)
# (§8) The LC50 (concentration of drug resulting in a 50% reduction in the measured protein at the end of the drug treatment as compared to that at the beginning) indicating a net loss of cells following treatment is calculated from [(Ti−Tz)/Tz]×100=−50 (5)
# (§9) Values are calculated for each of these three parameters if the level of activity is reached; however, if the effect is not reached or is exceeded, the value for that parameter is expressed as greater or less than the maximum or minimum concentration tested.
# A549/ATCC = A549/ATCC (Non-Small Cell Lung)
# Procedure: as §1, §2, §3, §4, §5, §6, §7, §8, §9
# BT-549 = BT-549 (Breast)
# Procedure: as §1, §2, §3, §4, §5, §6, §7, §8, §9
# Colo205 = settings: COLO205 (Colon)
# Procedure: as §1, §2, §3, §4, §5, §6, §7, §8, §9
# HCT-116 = HCT-116 (Colon)
# Procedure: as §1, §2, §3, §4, §5, §6, §7, §8, §9
# LOX IMVI = LOX IMVI (Melanoma)
# Procedure: as §1, §2, §3, §4, §5, §6, §7, §8, §9
# M14 = M14 (Melanoma)
# Procedure: as §1, §2, §3, §4, §5, §6, §7, §8, §9
# NCI-H322M = NCI-H322M (Non-Small Cell Lung)
# Procedure: as §1, §2, §3, §4, §5, §6, §7, §8, §9
# NCI-H522 = NCI-H522 (Non-Small Cell Lung)
# Procedure: as §1, §2, §3, §4, §5, §6, §7, §8, §9
# OVCAR-8 = OVCAR-8 (Ovarian)
# Procedure: as §1, §2, §3, §4, §5, §6, §7, §8, §9
# RXF393 = RXF393 (Renal)
# Procedure: as §1, §2, §3, §4, §5, §6, §7, §8, §9
# SF-295 = SF-295 (CNS)
# Procedure: as §1, §2, §3, §4, §5, §6, §7, §8, §9
# SK-MEL-28 = SK-MEL-28 (Melanoma)
# Procedure: as §1, §2, §3, §4, §5, §6, §7, §8, §9
# SK-MEL-5 = SK-MEL-5 (Melanoma)
# Procedure: as §1, §2, §3, §4, §5, §6, §7, §8, §9
# SR = SR (Leukemia)
# Procedure: as §1, §2, §3, §4, §5, §6, §7, §8, §9
# T-47D = T-47D (Breast)
# Procedure: as §1, §2, §3, §4, §5, §6, §7, §8, §9
# UACC-257 = UACC-257 (Melanoma)
# Procedure: as §1, §2, §3, §4, §5, §6, §7, §8, §9
# [1] = Homo sapiens, read-out: LC50 (the source's name)
smiles,measurement,setting,value
"CC(C)(C)NC1CCN(c2cc(-c3ccc(Cl)cc3)nc3ccccc23)CC1.Cl.Cl [XII-4, 2-(4-chloro-phenyl)-4-(4-N-tert-butylamino-piperidin-1-yl)quinoline dihydrochloride]",Growth percent at 10 μM,A498,+++ (cell growth 20 > % < 40)
same,Growth percent at 10 μM,A549/ATCC,++ (cell growth 40 > % < 60)
same,Growth percent at 10 μM,BT-549,− (cell growth % > 80)
same,Growth percent at 10 μM,Colo205,×××× (cell growth −60 < % > −80)
same,Growth percent at 10 μM,HCT-116,+++ (cell growth 20 > % < 40)
same,Growth percent at 10 μM,LOX IMVI,++++ (cell growth 0 > % < 20)
same,Growth percent at 10 μM,M14,×××× (cell growth −60 < % > −80)
same,Growth percent at 10 μM,NCI-H322M,++ (cell growth 40 > % < 60)
same,Growth percent at 10 μM,NCI-H522,+ (cell growth 60 > % < 80)
same,Growth percent at 10 μM,OVCAR-8,− (cell growth % > 80)
same,Growth percent at 10 μM,RXF393; 10 μM,+++ (cell growth 20 > % < 40)
same,Growth percent at 10 μM,SF-295,− (cell growth % > 80)
same,Growth percent at 10 μM,SK-MEL-28,×××× (cell growth −60 < % > −80)
same,Growth percent at 10 μM,SK-MEL-5,++++ (cell growth 0 > % < 20)
same,Growth percent at 10 μM,SR,++++ (cell growth 0 > % < 20)
same,Growth percent at 10 μM,T-47D,++ (cell growth 40 > % < 60)
same,Growth percent at 10 μM,UACC-257,××× (cell growth −40 < % > −60)
"CCN(CC)C1CCN(C(C)c2cc(-c3ccccc3)nc3ccccc23)CC1.Cl.Cl (stereo not drawn) [XIX-3, 2-phenyl-4-{1-[4-(N,N-diethylamino)piperidin-1-yl]-eth-1-yl}quinoline dihydrochloride]",TGI,A498,20 µM
same,Growth percent at 10 μM,A498,++ (cell growth 40 > % < 60)
same,GI50,A498; Homo sapiens,5 µM
same,LC50,A498; Homo sapiens,54 µM
same,TGI,A549/ATCC,31 µM
same,Growth percent at 10 μM,A549/ATCC,+ (cell growth 60 > % < 80)
same,GI50,A549/ATCC; Homo sapiens,15 µM
same,CC50,A549/ATCC; [1],63 µM
same,TGI,BT-549,27 µM
same,Growth percent at 10 μM,BT-549,+ (cell growth 60 > % < 80)
same,GI50,BT-549; Homo sapiens,13 µM
same,CC50,BT-549; [1],56 µM
same,TGI,Colo205,4 µM
same,Growth percent at 10 μM,Colo205,××× (cell growth −40 > % < −60)
same,GI50,"Colo205; Homo sapiens, COLO 205",2 µM
same,CC50,"Colo205; Homo sapiens, COLO 205, read-out: LC50 (the source's name)",7 µM
same,TGI,HCT-116,19 µM
same,Growth percent at 10 μM,HCT-116,++ (cell growth 40 > % < 60)
same,GI50,HCT-116; Homo sapiens,5 µM
same,CC50,HCT-116; [1],51 µM
same,GI50,LOX IMVI; Homo sapiens,4 µM
same,CC50,LOX IMVI; [1],44 µM
same,TGI,LOX IMVI,15 µM
same,Growth percent at 10 μM,LOX IMVI,++ (cell growth 40 > % < 60)
same,GI50,M14; Homo sapiens,2 µM
same,CC50,M14; [1],8 µM
same,TGI,M14,4 µM
same,Growth percent at 10 μM,M14,××× (cell growth −40 > % < −60)
same,GI50,NCI-H322M; Homo sapiens,11 µM
same,CC50,NCI-H322M; [1],52 µM
same,TGI,NCI-H322M,24 µM
same,Growth percent at 10 μM,NCI-H322M,+ (cell growth 60 > % < 80)
same,GI50,NCI-H522; Homo sapiens,15 µM
same,CC50,NCI-H522; [1],66 µM
same,TGI,NCI-H522,32 µM
same,Growth percent at 10 μM,NCI-H522,+++ (cell growth 20 > % < 40)
same,GI50,OVCAR-8; Homo sapiens,14 µM
same,CC50,OVCAR-8; [1],62 µM
same,TGI,OVCAR-8,30 µM
same,Growth percent at 10 μM,OVCAR-8,+ (cell growth 60 > % < 80)
same,GI50,"RXF393; Homo sapiens, RXF 393",4 µM
same,CC50,"RXF393; Homo sapiens, RXF 393, read-out: LC50 (the source's name)",17 µM
same,TGI,RXF393,17 µM
same,GI50,SF-295; Homo sapiens,4 µM
same,CC50,SF-295; [1],48 µM
same,TGI,SF-295,15 µM
same,Growth percent at 10 μM,SF-295,− (cell growth % > 80)
same,GI50,SK-MEL-28; Homo sapiens,2 µM
same,CC50,SK-MEL-28; [1],6 µM
same,TGI,SK-MEL-28,3 µM
same,Growth percent at 10 μM,SK-MEL-28,××× (cell growth −40 > % < −60)
same,GI50,SK-MEL-5; Homo sapiens,2 µM
same,CC50,SK-MEL-5; [1],6 µM
same,TGI,SK-MEL-5,3 µM
same,Growth percent at 10 μM,SK-MEL-5,××××× (cell growth % < −80)
same,GI50,SR; Homo sapiens,3 µM
same,CC50,SR; [1],49 µM
same,TGI,SR,7 µM
same,Growth percent at 10 μM,SR,× (cell growth 0 > % > −20)
same,GI50,"T-47D; Homo sapiens, T47D",5 µM
same,CC50,"T-47D; Homo sapiens, T47D, read-out: LC50 (the source's name)",52 µM
same,TGI,T-47D,19 µM
same,Growth percent at 10 μM,T-47D,++ (cell growth 40 > % < 60)
same,GI50,UACC-257; Homo sapiens,2 µM
same,CC50,UACC-257; [1],8 µM
same,TGI,UACC-257,4 µM
same,Growth percent at 10 μM,UACC-257,××× (cell growth −40 > % < −60)
